Consider 16 compounds from PubChem BioAssay (NCI).

Test in all cases: inhibition of tumour cell growth, NCI panel, 48 h
For test [1], the system named is IGROV1 ovarian.
The subject of test [2] is RPMI-8226 leukemia.
Test [3] has as its system SR leukemia.
In test [4] the test system is NCI-H226 lung.
The subject of test [5] is NCI/ADR-RES ovarian.
Test [6] deals with UO-31 renal.
Test [7] has as its system T-47D breast.
Test [8] deals with SK-OV-3 ovarian.
Test [9] concerns DU-145 prostate.
Test [10] concerns HL-60(TB) leukemia.

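Tested at 5 concentrations; 48 h exposure; 96-well plates; endpoints linearly interpolated, else capped at highest concentration. At the GI50, growth is halved. TGI: concentration producing complete growth inhibition.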

On to `Cn1c(=O)c2[nH]c(SCCN3CCOCC3)nc2n(C)c1=S`, for which the TGI in test [1], in test [2], in test [3], in test [4], in test [5] and in test [6] was greater than 100 µM throughout. Besides, the TGI in [7], in test [8], in test [9] and in [10] was greater than 100 µM each time.
As for `CCCCCN(CCCCC)CC(O)c1cc(Cl)ccc1OC` (configuration not stated), the GI50 is 3000 nM in [1]; 4.81 µM in test [2]; 4780 nM in [3]; 9.79 µM in test [4]; 9.26 µM in test [5]; 3370 nM in [6]. The GI50 in test [7] is 11500 nM; in [8] it was 12800 nM; in test [9], 10.8 µM; in [10], 5.05 µM. Also, the TGI came out at 15.1 µM in [1]; 22.7 µM in test [2]; 30.5 µM in [3]; 23.6 µM in test [4]; 25.9 µM in test [5]; 15.5 µM in test [6]. The TGI in [7] worked out at 26.9 µM; in [8], 29.5 µM; in [9], 23.5 µM; in test [10], 25.9 µM.
Consider `O=[N+]([O-])c1nccn1CC(O)CN1CCCCC1` (configuration not stated), for which the TGI in [1], in test [2], in test [3], in test [4], in test [5] and in test [6] was greater than 100 µM in each case. Besides, the TGI in test [7], in test [8], in test [9] and in test [10] was greater than 100 µM in each case.
Consider `CCCCCCCCOC(=O)c1c(C)[nH]c(/C=C2\N=C(c3ccc[nH]3)C=C2OC)c1C`, for which the GI50 is 41.4 nM in test [1]; 0.12 µM in [2]; less than 16.9 nM in [3]; 0.0873 µM in test [4]; 0.0367 µM in test [5]; 37.7 nM in test [6]. Moreover, the GI50 was 55.6 nM in test [7], 899 nM in test [8], 0.0427 µM in test [9] and 0.0688 µM in [10]. The TGI turned out to be 6.81 µM in test [1]; 2.11 µM in test [2]; 1.05 µM in test [3]; 6.26 µM in [4]; 9.86 µM in test [5]; 0.108 µM in test [6]. For the same compound, the TGI in [7] was found to be 10.4 µM; in test [8], 15.9 µM; in [9] it was 9.87 µM; in [10], 4.25 µM.
For the compound `NS(=O)(=O)c1ccc(N=Nc2c(O)[nH]c3ccc(C(=O)NCc4ccncc4)cc23)cc1`, the GI50 was greater than 25000 nM in test [1]; greater than 25 µM in test [2]; greater than 25000 nM in test [3]; greater than 25 µM in test [4]; greater than 25 µM in test [5]; greater than 25000 nM in test [6]. Also, the GI50 is greater than 25000 nM in test [7], greater than 25000 nM in test [8], greater than 25 µM in test [9] and greater than 25 µM in test [10]. In addition, the TGI in test [1], in test [2], in test [3], in [4], in [5] and in test [6] was greater than 25 µM in each case. Besides, the TGI in test [7], in test [8], in test [9] and in test [10] was greater than 25 µM each time.
In the case of `COc1cc2ncnc(-n3ncc4cc(NC(=O)Nc5ccc(Cl)c(Cl)c5)ccc43)c2cc1OC`, the GI50 is 2050 nM in test [1]; 2.11 µM in [2]; 2750 nM in test [3]; 2.45 µM in test [4]; 2.36 µM in test [5]; 2040 nM in test [6]. Further, the GI50 in test [7] was 2390 nM; in [8] it was 2040 nM; in [9] it was 3.2 µM; in test [10] it was 4.44 µM. Besides, the TGI in test [1] is 4.66 µM; in test [2], 7.52 µM; in test [3], greater than 100 µM; in test [4] it was 4.8 µM; in test [5] it was 6.23 µM; in test [6] it was 4.17 µM. Besides, the TGI in test [7] is 7.17 µM; in test [8], 4.03 µM; in [9], 11.9 µM; in test [10] it was 85 µM.
Turning to `COc1cccc(CN(C)c2ccc(CO)c(Cl)c2)c1`, the GI50 in test [1] is 216 nM; in test [2] it was 12.8 µM; in test [3] it was 41800 nM; in [4] it was 0.0588 µM; in [5] it was 19.1 µM; in test [6], 14500 nM. Moreover, the GI50 in test [7] was 298 nM; in test [8] it was 11300 nM; in test [9] it was 37.1 µM; in test [10] it was 26 µM. Besides, the TGI in [1] was 2.6 µM; in test [2], greater than 78.3 µM; in test [3], greater than 100 µM; in test [4] it was 0.202 µM; in test [5] it was 67 µM; in test [6] it was greater than 83.7 µM. For the same compound, the TGI in test [7] is 2.86 µM; in [8] it was greater than 60.7 µM; in test [9], greater than 100 µM; in test [10], greater than 87.1 µM.
Take `O=[N+]([O-])c1cccc(-c2nc(-c3ccccc3)c(-c3ccccc3)[nH]2)c1`: the TGI in [1], in [2], in test [3], in test [4], in test [5] and in [6] was greater than 100 µM in each case. The TGI in [7], in test [8], in test [9] and in test [10] was greater than 100 µM each time.
For the compound `CN1CCN(Cc2ccc(NC(=O)c3cncc(C#Cc4cnc(N)cc4C#N)c3)cc2C(F)(F)F)CC1`, the GI50 is 1160 nM in test [1]; 3.83 µM in [2]; 4210 nM in test [3]; 0.706 µM in test [4]; 13.7 µM in test [5]; 2000 nM in test [6]. For the same compound, the GI50 in test [7] was 4420 nM; in test [8], 2630 nM; in [9] it was 3.25 µM; in test [10], 0.768 µM. Moreover, the TGI in test [1] was 5.62 µM; in [2], 21 µM; in test [3], greater than 100 µM; in [4] it was 11.9 µM; in [5] it was 33.4 µM; in test [6], 6.95 µM. In addition, the TGI came to 21.1 µM in test [7], 9.31 µM in test [8], 15.5 µM in test [9] and 3.58 µM in test [10].
As to `Cc1ccc2nc(-c3ccc(OCC(=O)N=Nc4c(O)[nH]c5ccccc45)cc3)[nH]c2c1`, the GI50 in [1] is 3610 nM; in [2], 3.44 µM; in test [3], 499 nM; in test [4] it was 11.2 µM; in [5], greater than 100 µM; in test [6], 82400 nM. Also, the GI50 in test [7] was 2020 nM; in [8], 17500 nM; in test [9], 3.29 µM; in [10], 9.8 µM. Also, the TGI in test [1] is 16.1 µM; in test [2] it was 17.8 µM; in [3] it was 3.76 µM; in test [4] it was 56.1 µM; in test [5], greater than 100 µM; in test [6] it was greater than 100 µM. Moreover, the TGI in [7] was determined as 4.88 µM; in [8], 37 µM; in test [9] it was 13.5 µM; in [10], 35.9 µM.
Consider `COc1ccc(C(=O)c2cc3c(N)c(C(=O)Nc4ccccc4)sc3nc2C)cc1`, for which the GI50 was 2510 nM in [1]; 1.78 µM in [2]; 376 nM in [3]; 11.1 µM in [4]; 0.816 µM in test [5]; 2640 nM in test [6]. The GI50 was 740 nM in test [7], 763 nM in test [8], 2.21 µM in test [9] and 0.5 µM in [10]. Moreover, the TGI in test [1], in test [2], in test [3], in test [4], in test [5] and in [6] was greater than 100 µM in each case. Further, the TGI in test [7] is greater than 100 µM; in test [8], greater than 100 µM; in [9], greater than 100 µM; in test [10], 26.3 µM.
As to `C=C/C(C)=C/C[C@]1(C)[C@H](C)[C@@H](OC(=O)CCC)[C@H](O)[C@@]23C(=C[C@H](OC)C[C@@H]12)[C@@H](OC(=O)CCC)O[C@H]3OC(C)=O`, the GI50 in test [1] was 1530 nM; in test [2], 0.341 µM; in test [3], 324 nM; in test [4], 0.38 µM; in [5], 0.88 µM; in test [6], 212 nM. Moreover, the GI50 in test [7] was 360 nM; in test [8], 266 nM; in [9], 1.53 µM; in test [10] it was 0.228 µM. The TGI in test [1] was found to be 3.39 µM; in [2], 1.65 µM; in [3], 1.49 µM; in [4] it was 1.34 µM; in test [5], 2.46 µM; in test [6], 0.586 µM. Besides, the TGI in [7] worked out at 1.71 µM; in test [8], 0.806 µM; in test [9], 2.9 µM; in test [10], 0.693 µM.
For `O=C(O)/C=C\C(=O)Nc1ccccn1`, the TGI in test [1], in [2], in test [3], in [4], in [5] and in test [6] was greater than 100 µM each time. Moreover, the TGI in [7], in [8], in test [9] and in test [10] was greater than 100 µM throughout.
In the case of `CN(C)c1ccc(/C=C2\N=C(c3ccccc3)N(c3cc(C(F)(F)F)ccc3Cl)C2=O)cc1`, the GI50 was greater than 100000 nM in test [1]; 35.7 µM in test [2]; 63.3 nM in test [3]; greater than 90.4 µM in [4]; greater than 100 µM in [5]; greater than 100000 nM in test [6]. In addition, the GI50 was greater than 100000 nM in test [7], greater than 100000 nM in test [8], greater than 100 µM in test [9] and greater than 100 µM in [10]. Moreover, the TGI in [1], in test [2], in test [4], in test [5], in test [6] and in test [7] was greater than 100 µM in each case. Besides, the TGI in test [8], in [9] and in test [10] was greater than 100 µM throughout.
Consider `Cc1cc(C)c2c(n1)sc1c(N)ncnc12`, for which the GI50 in test [1] is 19700 nM; in test [2], greater than 25 µM; in test [3] it was 9430 nM; in test [4] it was 11.9 µM; in test [5], greater than 25 µM; in test [6], 12900 nM. Also, the GI50 in test [7] was greater than 25000 nM; in [8] it was greater than 25000 nM; in [9], greater than 25 µM; in test [10], greater than 25 µM. Besides, the TGI in [1], in test [2], in [3], in test [4], in [5] and in test [6] was greater than 25 µM in each case. For the same compound, the TGI in test [7], in test [8], in [9] and in test [10] was greater than 25 µM throughout.
As to `c1cc(-c2nnc(SSc3ncnc4nc[nH]c34)o2)ccn1`, the GI50 in [2] is 1.32 µM; in [3], 576 nM; in test [4], 4.63 µM; in test [5] it was 2.74 µM; in [6], 742 nM; in [7] it was 467 nM. The values for the GI50 in test [8], in test [9] and in test [10] were 450 nM, 0.455 µM and 2.49 µM, respectively. Besides, the TGI in [2], in test [3], in [4], in [5], in test [6] and in [7] was greater than 100 µM throughout. Further, the TGI in test [8], in test [9] and in test [10] was greater than 100 µM each time.
